Results taken from patent US8980226B2, “Aerosolized fosfomycin/aminoglycoside combination for the treatment of bacterial respiratory infections” (Gilead Sciences, Inc., priority 2004, dated 2015).
Like-named read-outs stand apart in the source and are kept apart here.

Key:
Assay type in all cases: cell-based
[1] = test system: P. aeruginosa ATCC 27853; assay: Time-kill kinetics in the presence of 2% porcine gastric mucin; details: for killing in time-kill curves / Time to reach bactericidal killing, antibiotic alone: P. aeruginosa ATCC 27853; for killing in time-kill curves: FIGS. 1-7, fosfomycin and tobramycin alone as comparators of the combination; for Time to reach bactericidal killing, antibiotic alone: single antibiotic, 32 μg/mL
Experimental: Two to three bacterial colonies were inoculated into 10 mL CAMHB and incubated at 35° C. in a shaking water bath (250 rpm) for 18-24 hours. […] The resulting culture was adjusted to a 0.5 McFarland standard (NCCLS, 2003). […] Ten milliliter aliquots were then pipeted into 50 mL conical tubes. […] The killing activity of fosfomycin plus amikacin, arbekacin, dibikacin, gentamicin, kanamycin, […], neomycin, streptomycin, or tobramycin were also compared to the killing activity of their individual components alone. […] A no drug control was run in each experiment. Cultures were incubated with antibiotic at 35° C. in a shaking (250 rpm) water bath for 24 hours. […] Culture plates were incubated at 35° C. for 18-24 hours and the number of colonies enumerated manually. The limit of detection for the colony counting method was 1 Log10). Time-kill curves were constructed by plotting the Log10 number of CFU/mL culture versus time.

[2] = test system: P. aeruginosa; details: for Frequency of Resistance: plates with 128 μg/mL fosfomycin, 8 μg/mL tobramycin, or both
Experimental: The frequency of single-step spontaneous resistance mutation was determined for 5 susceptible P. aeruginosa strains. The bacterial inoculum was prepared by inoculating 5 mL of CAMHB with 2-3 bacterial colonies and incubating at 35° C. in a shaking water bath (250 rpm) for 18 h. A 1:20 dilution of the overnight culture was made into 50 mL of fresh CAMHB in a 125 ml erlenmyer flask and incubated at 35° C. in a shaking waterbath (250 rpm) for 8 hours. Cultures were centrifuged at 2,500 rpm, room temperature, for 20 min. The supernatant was decanted off and the cell pellet from the 50 mL of culture resuspended in 500 μl-1000 μl CAMHB. The CFU/mL in the bacterial suspension was determined by making 10-fold serial dilutions in sterile normal saline, and spreading 100 μl aliquots on blood agar plates. Culture plates were incubated at 35° C. for 18-24 hours and the number of colonies enumerated manually. One hundred microliters of bacterial cell suspension (approximately 10^9 CFU) was spread onto MHA plates containing 128 μg/mL of fosfomycin, 8 μg/mL of tobramycin, or 128 μg/mL of fosfomycin plus 8 μg/mL of tobramycin. The culture plates were incubated at 35° C. for 48-72 hours and the number of colonies on each plate was enumerated manually. The frequency of resistance was calculated by dividing the number of bacteria growing at the defined antibiotic concentration by the number of bacteria in the original inoculum. Representative mutants were evaluated for changes in MIC to fosfomycin alone, tobramycin alone, and fosfomycin plus tobramycin combinations as described in Example 5, Method A.

[3] = test system: E. faecalis; assay: MIC, agar-plate dilution method; details: Enterococcus faecalis
Experimental: (§1) “Minimal inhibitory concentration (MIC)” means the lowest concentration of antibiotic (s) that prevents visible growth after incubation for 18-20 hours at 35° C.
(§2) The efficacy of antibiotics and antibiotic combinations against Gram-positive and Gram-negative bacteria representative of species that cause respiratory infections in patients with cystic fibrosis, bronchiectasis, sinusitis, and ventilator-associated pneumonia were evaluated in MIC assays. P. aeruginosa strains were isolated from lung sputum samples collected from cystic fibrosis patients, blood cultures, respiratory tract infections, and skin or soft tissue infections. E. coli, H. influenzae, B. cepacia, S. maltophilia, K. pneumoniae, M. catarrhalis, S. aureus, S. pneumoniae, S. pyogenes, and E. faecalis were isolated from respiratory tract infections. E. coli ATCC 25922, P. aeruginosa ATCC 27853, and S. aureus ATCC 29213 were used as quality control stains.
(§3) The MICs of fosfomycin alone, tobramycin alone, or combinations of fosfomycin plus tobramycin were determined by the agar-plate dilution method according to NCCLS guidelines (NCCLS, 2003). Bacterial strains were streaked onto Trypic Soy Agar plates (PML Microbiologicals, Wilsonville, Oreg.) containing 5% defibrinated sheep blood (hereafter referred to as blood agar plates) and incubated overnight at 35° C. Two to three bacterial colonies from the overnight cultures were inoculated into 3 mL of sterile normal saline, vortexed briefly, and adjusted to a 0.5 McFarland standard (NCCLS, 2003). The bacterial suspension was diluted 1:40 in sterile normal saline and served as the inoculum. Mueller-Hinton agar plates (hereafter referred to as MHA) were prepared by combining 16 g of agarose (Becton-Dickinson, Sparks, Md.), 22 g of Mueller-Hinton broth powder (Becton-Dickinson, Sparks, Md.), and adjusted to 1 L with distilled water. The agar was sterilized by autoclaving, cooled to 55° C., and supplemented with 25 μg/mL of glucose-6-phosphate (Sigma-Aldrich, St. Louis, Mo.). Twenty-five mL of cooled agar was aliquoted into 50 mL conical tubes and supplemented with appropriate concentrations of antibiotic to achieve concentrations ranging from 0.06 μg/mL to 512 μg/mL. After gently mixing the agar and antibiotic, the suspension was poured into sterile 100 mm petri dishes and allowed to solidify at room temperature. The antibiotic agar plates were inoculated with approximately 2×10^4 CFU/spot with a 48-point inoculator (Sigma-Aldrich, St. Louis, Mo.). The MIC was defined as the lowest concentration of antibiotic (s) that prevented visible growth after incubation for 18-20 hours at 35° C. The efficacy of a particular antibiotic or antibiotic combination on large populations of P. aeruginosa was determined by calculating the MIC50 and MIC90 values. The MIC50 value was defined as the concentration of antibiotic(s) which inhibited 50% of the P. aeruginosa strains. The MIC90 value was defined as the concentration of antibiotic(s) which inhibited 90% of the P. aeruginosa strains (Wiedemann and Grimm, 1996).

[4] = test system: P. aeruginosa; assay: MIC, agar-plate dilution method; details: Pseudomonas aeruginosa
Experimental: as §1, §2, §3

[5] = test system: K. pneumoniae; assay: MIC, agar-plate dilution method
Experimental: as §1, §2, §3

[6] = test system: S. pyogenes; assay: MIC, agar-plate dilution method; details: Streptococcus pyogenes
Experimental: as §1, §2, §3

[7] = test system: S. pneumoniae; assay: MIC, agar-plate dilution method; details: Streptococcus pneumoniae
Experimental: as §1, §2, §3

[8] = mutants of P. aeruginosa ATCC 27853
[9] = mutants of P. aeruginosa COR-002
[10] = mutants of P. aeruginosa COR-003
[11] = mutants of P. aeruginosa COR-013
[12] = mutants of P. aeruginosa COR-014
[13] = P. aeruginosa COR-003, read-out: MIC
[14] = P. aeruginosa COR-021, read-out: MIC
[15] = Klebsiella pneumoniae, K. pneumoniae COR-042, read-out: MIC

Compound	killing in time-kill curves [1]	Time to reach bactericidal killing, antibiotic alone [1]	Frequency of Resistance ([2]; P. aeruginosa ATCC 27853)	Frequency of Resistance ([2]; P. aeruginosa COR-002)	Frequency of Resistance ([2]; P. aeruginosa COR-003)	Frequency of Resistance ([2]; P. aeruginosa COR-013)	Frequency of Resistance ([2]; P. aeruginosa COR-014)	Fold Increase in MIC after a single exposure to antibiotic [2, 8]	Fold Increase in MIC after a single exposure to antibiotic [2, 9]	Fold Increase in MIC after a single exposure to antibiotic [2, 10]	Fold Increase in MIC after a single exposure to antibiotic [2, 11]	Fold Increase in MIC after a single exposure to antibiotic [2, 12]	MIC ([3]; E. faecalis COR-099)	MIC ([3]; E. faecalis COR-103)	MIC [4, 13]	MIC [4, 14]	MIC [5, 15]	MIC ([6]; S. pyogenes COR-104)	MIC ([6]; S. pyogenes COR-105)	MIC ([7]; S. pneumoniae COR-061)	further results
NC[C@H]1O[C@H](O[C@H]2[C@H](O)[C@@H](O[C@H]3O[C@H](CO)[C@@H](O)[C@H](N)[C@H]3O)[C@H](N)C[C@@H]2N)[C@H](N)C[C@@H]1O [Tobramycin]	bacteriostatic killing	1 h	3.4 × 10^−6	6.7 × 10^−6	3.2 × 10^−6	2.6 × 10^−6	5.0 × 10^−6	1	1	2	8	16	512 µg/mL	8 µg/mL	0.5 µg/mL	64 µg/mL	0.5 µg/mL	32 µg/mL	64 µg/mL	64 µg/mL	rank of killing activity, combinations and tobramycin alone compared ([1]; 16 ug/mL, FIGS. 8 and 9): most active antibiotic; increase in MIC of mutants after a single exposure ([2]; range over the P. aeruginosa mutants): 2-16 fold; MIC ([4]; P. aeruginosa COR-009, read-out: MIC): 2050 µg/mL; MIC ([4]; P. aeruginosa COR-027, read-out: MIC): 0.5 µg/mL; MIC ([5]; K. pneumoniae COR-049): 0.5 µg/mL; MIC ([7]; S. pneumoniae COR-068): 16 µg/mL
C[C@@H]1O[C@@H]1P(=O)(O)O [Fosfomycin]	bacteriostatic killing	not bactericidal	4.1 × 10^−5	1.4 × 10^−3	5.5 × 10^−4	6.4 × 10^−3	1.5 × 10^−5	128	>256	>256	>64	>512	32 µg/mL	32 µg/mL	16 µg/mL	8 µg/mL	8 µg/mL	64 µg/mL	16 µg/mL	32 µg/mL	MIC ([4]; P. aeruginosa COR-009): 1020 µg/mL; MIC ([4]; P. aeruginosa COR-027): 128 µg/mL; MIC ([5]; Klebsiella pneumoniae, K. pneumoniae COR-049): 128 µg/mL; MIC ([7]; S. pneumoniae COR-068): 8 µg/mL
